Reference: EPA's ToxValDB 9.5
“And” between values parts separate entries of the source, which are not always exact repeats. Identical values can stand only once.

Tested on: Rattus norvegicus
[1] = reproduction developmental, duration: 9 days, inhalation, F, Crl:CD(SD) BR, generation: P0, P0: Whole Body: Maternal Body Weight Change
[2] = reproduction developmental, duration: 9 days, inhalation, F, Sprague-Dawley, generation: P0, P0: General Toxicity: Whole Body: Clinical Observations + P0: General Toxicity: Whole Body: Maternal Body Weight Change
[3] = short-term, duration: 4 weeks, inhalation, F, Wistar, Multi-organ: Inorganic Phosphorous (PHOS), Blood
[4] = short-term, duration: 4 weeks, inhalation, M, Wistar, Blood: Partial Thromboplastin Time (PTT) + Liver: Cytoplasmic Vacuolation, Fatty Hepatocellular
[5] = subchronic, duration: 90 days, inhalation, F, RccHan (Wist), Blood: Large Unstained Cells + Blood: Lymphocyte + Blood: Monocytes
[6] = subchronic, duration: 90 days, inhalation, F, Wistar, General Toxicity: Whole Body: Body Weight Change + Immune: Blood: Large Unstained Cells + Immune: Blood: Lymphocyte + Immune: Blood: …
[7] = subchronic, duration: 90 days, inhalation, F, Wistar, Immune: Blood: Large Unstained Cells + Immune: Blood: Lymphocyte + Immune: Blood: Monocytes + Immune: Blood: White Blood Cell (WBC)
[8] = subchronic, duration: 90 days, inhalation, M/F, Wistar, Immune: Blood: Basophils + Immune: Blood: Eosinophils + Immune: Blood: Neutrophils
[9] = subchronic, duration: 90 days, inhalation, M, RccHan (Wist), Blood: Lymphocyte + Blood: Monocytes + Blood: White Blood Cell (WBC)
[10] = subchronic, duration: 90 days, inhalation, M, Wistar, General Toxicity: Whole Body: Body Weight Change + Immune: Blood: Large Unstained Cells + Immune: Blood: Lymphocyte + Immune: Blood: …
[11] = subchronic, duration: 90 days, inhalation, M, Wistar, Immune: Blood: Large Unstained Cells + Immune: Blood: Lymphocyte + Immune: Blood: Monocytes + Immune: Blood: White Blood Cell (WBC)
[12] = short-term, duration: 3 days, injection, subcutaneous, F, Crj:CD, uterus: uterine dry weight (absolute)
[13] = short-term, duration: 3 days, injection, subcutaneous, F, Sprague-Dawley, uterus: absolute blotted uterine weight
[14] = short-term, duration: 10 days, oral, gavage, M, BrlHan:WIST, body weight
[15] = short-term, duration: 10 days, oral, gavage, M, BrlHan:WIST, male accessory sex gland: BC/LA weight (relative)
[16] = short-term, duration: 10 days, oral, gavage, M, BrlHan:WIST, male accessory sex gland: relative bulbourethral gland weight in the presence of TP + male accessory sex gland: relative seminal vesicle …
[17] = short-term, duration: 10 days, oral, gavage, M, BrlHan:WIST, male accessory sex gland: relative ventral prostate weight in the presence of TP
[18] = short-term, duration: 28 days, oral, gavage, F, Sprague-Dawley, Liver: Liver Weight, Absolute + Liver: Liver Weight, Relative + Thyroid: Thyroid Gland Weight, Relative + Whole Body: Body Weight, Absolute…
[19] = short-term, duration: 28 days, oral, gavage, F, Sprague-Dawley, Pituitary: Thyroid stimulating hormone (TSH) + Thyroid: Thyroxine (T4), Free (Free T4)
[20] = short-term, duration: 28 days, oral, gavage, M, Sprague-Dawley, Epididymis: Epididymis Weight, Absolute + Epididymis: Epididymis Weight, Relative + Liver: Liver Weight, Relative + Liver: Liver, Abnormal …
[21] = short-term, duration: 28 days, oral, gavage, M, Sprague-Dawley, Epididymis: Epididymis, Abnormal Size + Pituitary: Thyroid stimulating hormone (TSH) + Prostate: Prostate, Abnormal Size + Seminal Vesicles…

With `C=CC(F)(F)C(F)(F)C(F)(F)C(F)(F)F` [3,3,4,4,5,5,6,6,6-Nonafluorohexene] the NEL (developmental, duration: 9 days, inhalation, M/F, Crl:CD(SD) BR, generation: F1, F1: Uterus: Fetuses, Dead + F1: Uterus: Fetuses, Live + F1: Whole Body: Body Weight, Fetal + F1: Whole Body: External Abnormalities + F1: …) was 704000 mg/m3 and 705000 mg/m3, the LOAEL (developmental, duration: 9 days, inhalation, Sprague-Dawley, generation: F1, F1: Developmental: Skeleton: Skeletal Malformation + F1: Developmental: Skeleton: Skeletal Ossification Variations + F1: Developmental: Soft…) was 705000 mg/m3 and 704000 mg/m3 and the NOAEL (developmental, duration: 9 days, inhalation, Sprague-Dawley, generation: F1, F1: Developmental: Whole Body: External Abnormalities) was 70000 mg/m3. For the same molecule, the NEL (reproduction developmental, duration: 9 days, inhalation, F, Crl:CD(SD) BR, generation: P0, P0: Liver: Liver Weight, Unspecified + P0: Ovary: Corpora Lutea + P0: Uterus: Implantation + P0: Uterus: Resorptions, Early + P0: Uterus: …) was 704000 mg/m3 and 705000 mg/m3, the LEL [1] was 704000 mg/m3 and 705000 mg/m3 and the NEL [1] was 10100 mg/m3. The LOAEL (reproduction developmental, duration: 9 days, inhalation, F, Sprague-Dawley, generation: P0, P0: Developmental: Uterus: Implantation + P0: Developmental: Uterus: Resorptions, Early + P0: Developmental: Uterus: Resorptions, Late + P0…) was 705000 mg/m3 and 704000 mg/m3, the LOAEL [2] was 705000 mg/m3 and 704000 mg/m3 and the NOAEL [2] was 10100 mg/m3. For the same molecule, the NEL (short-term, duration: 4 weeks, inhalation, F, Wistar, Adrenal: Adrenal Gland Weight, Absolute + Adrenal: Adrenal Gland Weight, Relative + Blood: Partial Thromboplastin Time (PTT) + Blood: …) was 101000 mg/m3, the LEL [3] was 101000 mg/m3 and the NEL [3] was 20100 mg/m3. It also gave an NEL (short-term, duration: 4 weeks, inhalation, M, Wistar, Adrenal: Adrenal Gland Weight, Absolute + Adrenal: Adrenal Gland Weight, Relative + Blood: Prothrombin Time (PT) + Kidney: Kidney Weight, …) of 101000 mg/m3, an LEL [4] of 101000 mg/m3 and an NEL [4] of 20100 mg/m3. For the same molecule, the LEL [5] was 30600 mg/m3, the NEL [5] was 10100 mg/m3 and the NEL (subchronic, duration: 90 days, inhalation, F, RccHan (Wist), Blood: White Blood Cell (WBC) + Whole Body: Body Weight Change) was 103000 mg/m3. For the same molecule, the NOAEL (subchronic, duration: 90 days, inhalation, F, Wistar, General Toxicity: Whole Body: Body Weight Change) was 103000 mg/m3, the LOAEL [6] was 30600 mg/m3 and the NOAEL [6] was 10100 mg/m3. The LOAEL [7] was 30600 mg/m3, the NOAEL [7] was 10100 mg/m3 and the NEL (subchronic, duration: 90 days, inhalation, M/F, RccHan (Wist), Blood: Activated Partial Thromboplastin Time (APTT) + Blood: Basophils + Blood: Calcium (CA), Blood + Blood: Chloride (CL), Blood + Blood: …) was 103000 mg/m3. For the same molecule, the LOAEL (subchronic, duration: 90 days, inhalation, M/F, Wistar, Endocrine: Blood: Glucose (GLU) + Endocrine: Blood: Triglycerides (TRIG) + Endocrine: Serum: Cholesterol (CHOL), Total + General Toxicity: …) was 30600 mg/m3, the LOAEL [8] was 30600 mg/m3 and the NOAEL [8] was 10100 mg/m3. The NEL (subchronic, duration: 90 days, inhalation, M, RccHan (Wist), Blood: Large Unstained Cells + Whole Body: Body Weight Change) was 103000 mg/m3, the LEL [9] was 103000 mg/m3 and the NEL [9] was 30600 mg/m3. The NOAEL (subchronic, duration: 90 days, inhalation, M, Wistar, General Toxicity: Whole Body: Body Weight Change) was 103000 mg/m3, the LOAEL [10] was 30600 mg/m3 and the NOAEL [10] was 10100 mg/m3. The LOAEL [11] was 30600 mg/m3 and the NOAEL [11] was 10100 mg/m3.

For `CCC(C)(c1ccc(O)cc1)c1ccc(O)cc1` [Bisphenol B], the LOEL [12] was 200 mg/kg-day, the NOEL [12] was 20 mg/kg-day and the LOEL [13] was 200 mg/kg-day. The NOEL [13] was 20 mg/kg-day, the LOEL [14] was 600 mg/kg-day and the NOEL [14] was 200 mg/kg-day. The NOEL (short-term, duration: 10 days, oral, gavage, M, BrlHan:WIST, body weight in the presence of TP + body weight the absence of TP + male accessory sex gland: relative bulbourethral gland weight in the …) was 600 mg/kg-day, the LOEL [15] was 200 mg/kg-day and the NOEL [15] was 50 mg/kg-day. The NOEL (short-term, duration: 10 days, oral, gavage, M, BrlHan:WIST, male accessory sex gland: Cowper's gland weight (relative) + male accessory sex gland: glans penis weight (relative) + male accessory sex …) was 600 mg/kg-day, the LOEL [16] was 600 mg/kg-day and the NOEL [16] was 200 mg/kg-day. It also gave an LOEL [17] of 200 mg/kg-day and an NOEL [17] of 50 mg/kg-day.

Molecule `FC(F)(I)C(F)(F)C(F)(F)C(F)(F)I` [Perfluoro-1,4-diiodobutane] has an LOAEL [18] of 30 mg/kg-day, an NOAEL [18] of 10 mg/kg-day and an NOAEL (short-term, duration: 28 days, oral, gavage, F, Sprague-Dawley, Liver: Liver, Abnormal Area(s) + Liver: Liver, Abnormal Shape + Multi-organ: Follicle stimulating hormone (FSH) + Multi-organ: Luteinizing …) of 30 mg/kg-day. It also gave an LOAEL [19] of 10 mg/kg-day, an NOAEL [19] of 3 mg/kg-day and an LOAEL [20] of 30 mg/kg-day. It also gave an NOAEL [20] of 10 mg/kg-day, an LOAEL [21] of 10 mg/kg-day and an NOAEL [21] of 3 mg/kg-day. For the same molecule, the NOAEL (short-term, duration: 28 days, oral, gavage, M, Sprague-Dawley, Liver: Liver Weight, Absolute + Liver: Liver, Abnormal Area(s) + Liver: Liver, Abnormal Shape + Liver: Liver, Abnormal Size + Multi-organ: …) was 30 mg/kg-day and the LOAEL (short-term, duration: 28 days, oral, gavage, M, Sprague-Dawley, Thyroid: Triiodothyronine, Free (Free T3)) was 1 mg/kg-day.
